Oligonucleotides are written 5' to 3', each unit as a sugar letter and its base; * is a phosphorothioate linkage, no mark a phosphodiester; rarer units and linkages stand in square brackets, end groups in braces. Plain capitals give the bases only. e = 2'-O-(2-methoxyethyl) (MOE); [5mC] = 5-methylcytosine; d = 2'-deoxy (DNA)
Experiments:
Format in all cases: cell-based
Human STAT3 mRNA [1] = test: Human STAT3 mRNA dose response in T-24 cells, real-time PCR with PPS 199 (Table 18); settings: 16 hours, − decrease, + increase relative to untreated control
From the text: The transitional cell bladder carcinoma cell line T-24 was obtained from the American Type Culture Collection (ATCC) (Manassas, Va.). T-24 cells were routinely cultured in complete McCoy's 5A basal media (Gibco/Life Technologies, Gaithersburg, Md.) supplemented with 10% fetal calf serum (Gibco/Life Technologies, Gaithersburg, Md.), penicillin 100 units per mL, and streptomycin 100 micrograms per mL (Gibco/Life Technologies, Gaithersburg, Md.). Cells were routinely passaged by trypsinization and dilution when they reached 90% confluence. Cells were seeded into 96-well plates (Falcon-Primaria #3872) at a density of 7000 cells/well for use in RT-PCR analysis.
Control oligonucleotides used were ISIS 129695 ([…], SEQ ID NO: 391), ISIS 129694 ([…] SEQ ID NO: 392), ISIS 129690 ([…] SEQ ID NO: 393), ISIS 129686 ([…] SEQ ID NO: 394), ISIS 116847 ([…], SEQ ID NO: 395) and ISIS 113529 ([…] SEQ ID NO: 396). These are universal scrambled control oligonucleotides.
(§1) T-24 cells were treated with 18.75, 37.5, 75, or 150 nM of oligonucleotide mixed with 3 ug/mL LIPOFECTIN per 100 nM oligonucleotide as described by other examples herein. Untreated cells served as controls. Following 16 hours of treatment, RNA was prepared from cells for subsequent real-time PCR analysis.
Human STAT3 mRNA expression levels were quantitated by real-time PCR using primer probe set PPS 199 and gene target quantities were normalized using Ribogreen as described in other examples herein. A “−” or “+” designation indicates a decrease or increase of STAT 3 mRNA expression, respectively, relative to untreated control cells.

Human STAT3 mRNA [2] = test: Human STAT3 mRNA dose response in T-24 cells, real-time PCR with PPS 2033 (Table 19); settings: 16 hours, − decrease, + increase relative to untreated control
Protocol: The dose-response was repeated in T-24 cells and gene target quantities were measured using a different primer-probe set, called PPS 2033 herein. PPS 2033 comprises probes and primers to human STAT3 were designed to hybridize to a human STAT3 sequence, using published sequence information (incorporated herein as SEQ ID NO: XXX). For PPS 2033 the PCR primers were: forward primer: GAGGCCCGCCCAACA (SEQ ID NO: 397) reverse primer: […] (SEQ ID NO: 398) and the PCR probe was: FAM-CTGCCTAGATCGGC-TAMRA (SEQ ID NO: 399) where FAM is the fluorescent reporter dye and TAMRA is the quencher dye. Gene target quantities obtained by real time RT-PCR are normalized by quantifying total RNA using RiboGreen™ (Molecular Probes, Inc. Eugene, Oreg.). Control oligonucleotides used were ISIS 129695 (SEQ ID NO: 391), ISIS 129694 (SEQ ID NO: 392), ISIS 129690 (SEQ ID NO: 393), ISIS 129686 (SEQ ID NO: 394), ISIS 116847 (SEQ ID NO: 395) and ISIS 113529 (SEQ ID NO: 396).
as §1
Human STAT3 mRNA expression levels were quantitated by real-time PCR using primer probe set PPS 2033 and gene target quantities were normalized using Ribogreen as described in other examples herein. A “−” or “+” designation indicates a decrease or increase of STAT 3 mRNA expression, respectively, relative to untreated control cells.

Human STAT3 mRNA [3] = test: Inhibition of human STAT3 mRNA levels in A549 cells, 75 nM, real-time PCR (Table 13); settings: 75 nM oligonucleotide with LIPOFECTIN, real-time PCR PPS 199, percent inhibition relative to untreated control cells, average of 2 experiments
How it was run: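 A549 cells at 65–75% confluency were transfected in duplicate with 75 nM oligonucleotide plus […] Lipofectin for 4–7 h at 37° C and harvested 16–24 h later. STAT3 mRNA was quantified by real-time RT-PCR with primer-probe set PPS 199 and normalized to RiboGreen total RNA. Inhibition is relative to untreated controls.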

Substance	Percent change of STAT3 expression using PPS 199 (Human STAT3 mRNA [1]; 18.75 nM oligonucleotide)	Percent change of STAT3 expression using PPS 199 (Human STAT3 mRNA [1]; 37.5 nM oligonucleotide)	Percent change of STAT3 expression using PPS 199 (Human STAT3 mRNA [1]; 75 nM oligonucleotide)	Percent change of STAT3 expression using PPS 199 (Human STAT3 mRNA [1]; 150 nM oligonucleotide)	Percent change of STAT3 expression using PPS 2033 (Human STAT3 mRNA [2]; 18.75 nM oligonucleotide)	Percent change of STAT3 expression using PPS 2033 (Human STAT3 mRNA [2]; 37.5 nM oligonucleotide)	Percent change of STAT3 expression using PPS 2033 (Human STAT3 mRNA [2]; 75 nM oligonucleotide)	Percent change of STAT3 expression using PPS 2033 (Human STAT3 mRNA [2]; 150 nM oligonucleotide)	% Inhib (inhibition of human STAT 3 mRNA levels) (Human STAT3 mRNA [3])
106747 (GCCCATGATGATTTCAGCAA; all C 5-methyl, all phosphorothioate, sugars by position not given here; further chemistry not fully specified) [compound 106747]	−37%	−48%	−71%	−84%	−32%	−48%	−62%	−76%	
113529 (antisense CTCTTACTGTGCTGTGGACA; all phosphorothioate, sugars by position and methylation of C not given here; 2'-MOE wings and deoxy gap) [compound 113529]	+1%	−1%	−11%	−26%	+1%	+12%	−11%	−24%	
116847 (antisense CTGCTAGCCTCTGGATTTGA; all phosphorothioate, sugars by position and methylation of C not given here; 2'-MOE wings and deoxy gap) [compound 116847]	+7%	+4%	+8%	+5%	+45%	+33%	+22%	−2%	
129694 (antisense GTACAGTTATGCGCGGTAGA; all phosphorothioate, sugars by position and methylation of C not given here; 2'-MOE wings with deoxy gap) [compound 129694]	+4%	−3%	−4%	−10%	+19%	−1%	+7%	+2%	
129695 (antisense TTCTACCTCGCGCGATTTAC; all phosphorothioate, sugars by position and methylation of C not given here; 2'-MOE wings with deoxy gap) [compound 129695]	+5%	+2%	+8%	0%	−4%	+2%	+8%	+3%	
337247 (antisense eT*eT*eT*eT*eG*d[5mC]*dA*dT*dG*dA*dT*dG*dT*dA*dA*e[5mC]*e[5mC]*eA*e[5mC]*eT) [compound 337247]	−23%	−43%	−62%	−75%	+17%	−21%	−53%	−69%	87%
337270 (antisense eT*eT*eG*eG*e[5mC]*dT*dT*d[5mC]*dT*d[5mC]*dA*dA*dG*dA*dT*eA*e[5mC]*e[5mC]*eT*eG) [compound 337270]	−29%	−41%	−67%	−87%	−16%	−27%	−67%	−87%	89%
337276 (antisense e[5mC]*eT*eG*eG*eA*dG*dA*dT*dT*d[5mC]*dT*d[5mC]*dT*dA*d[5mC]*e[5mC]*eA*e[5mC]*eT*eT) [compound 337276]	−40%	−61%	−76%	−81%	−34%	−58%	−75%	−81%	91%
337375 (antisense eA*e[5mC]*e[5mC]*eA*eG*dG*dA*dG*dG*d[5mC]*dA*d[5mC]*dT*dT*dG*eT*e[5mC]*eT*eA*eA) [compound 337375]									89%
337376 (antisense eG*e[5mC]*eA*eG*eG*d[5mC]*dA*d[5mC]*d[5mC]*dA*dG*dG*dA*dG*dG*e[5mC]*eA*e[5mC]*eT*eT) [compound 337376]									83%
337377 (antisense eG*e[5mC]*eT*eT*eA*d[5mC]*dA*dG*dA*dA*dA*d[5mC]*dA*dG*dG*e[5mC]*eA*eG*eA*eA) [compound 337377]									78%
337378 (antisense eA*eG*eG*eT*eG*dG*d[5mC]*d[5mC]*dT*dG*dT*dG*dG*d[5mC]*dA*eT*eT*eT*eG*e[5mC]) [compound 337378]									16%
337379 (antisense eG*eT*eA*eT*eG*dT*dA*dG*d[5mC]*dT*dA*dT*dA*dG*dG*eT*eG*eG*e[5mC]*e[5mC]) [compound 337379]									71%
337380 (antisense eG*e[5mC]*eA*eA*eT*dG*d[5mC]*d[5mC]*dA*dG*dG*dA*dG*dT*dA*eT*eG*eT*eA*eG) [compound 337380]									83%
337381 (antisense eT*eT*eA*eA*eA*dA*dA*dG*dT*dG*d[5mC]*dA*dA*dT*dG*e[5mC]*e[5mC]*eA*eG*eG) [compound 337381]									86%
337382 (antisense eG*eG*e[5mC]*eT*eT*dA*dG*dA*dT*dA*dG*dT*d[5mC]*d[5mC]*dT*eA*eT*e[5mC]*eT*eT) [compound 337382]									84%
337383 (antisense eT*eA*eA*eA*eA*dA*dG*dA*dA*dA*d[5mC]*d[5mC]*dT*dA*dG*eG*eG*e[5mC]*eT*eT) [compound 337383]									81%
337385 (antisense eT*eT*eA*eA*eG*dT*dT*dT*d[5mC]*dT*dT*dA*dA*dA*dT*eA*e[5mC]*eA*eG*eA) [compound 337385]									70%
